In EP0745595A1, “3-(3-Aryloxyphenyl)-1-(substituted methyl)-s-triazine-2,4,6-oxo or thiotrione herbicidal agents” (American Cyanamid Company, priority 1995, dated 1996):

Experiments:
Format in all cases: in vivo
[1] = tested on: ABUTILON THEOPHRASTI, MEDIC.; test: Postemergence herbicidal evaluation, ABUTH (Velvetleaf); details: for ABUTH, herbicide rating (0-9): rated four to five weeks after treatment, averaged
Procedure: (§1) In the tests, seedling plants are grown in jiffy flats for about two weeks. The test compounds are dispersed in 50/50 acetone/water mixtures containing 0.5% TWEEN®20, a polyoxyethylene sorbitan monolaurate surfactant of Atlas Chemical Industries, […] to the plants through a spray nozzle operating at 40 psi for a predetermined time. After spraying, the plants are placed on greenhouse benches and are cared for in the usual manner, commensurate with conventional greenhouse practices. From four to five weeks after treatment, the seedling plants are examined and rated according to the rating system set forth below. Where more than one test is involved for a given compound, the data are averaged.
(§2) Plant species employed in these evaluations are reported by header abbreviation, common name and scientific name.
(§3) Results of herbicide evaluation are expressed on a rating scale (0-9). The scale is based upon a visual observation of plant stand, vigor, malformation, size, chlorosis and overall plant appearance as compared with a control.

[2] = tested on: AMBROSIA ARTEMISIIFOLIA, L.; test: Postemergence herbicidal evaluation, AMBEL (Ragweed, Common); details: for AMBEL, herbicide rating (0-9): rated four to five weeks after treatment, averaged
Procedure: as §1, §2, §3

CHENOPODIUM ALBUM, L. [3] = test: Postemergence herbicidal evaluation, CHEAL (Lambsquarters, Common)
Procedure: as §1, §2, §3

IPOMOEA SPP. = test: Postemergence herbicidal evaluation, IPOSS (Morningglory spp.)
Procedure: as §1, §2, §3

[4] = tested on: ECHINOCHLOA CRUS-GALLI, (L) BEAU; test: Postemergence herbicidal evaluation, ECHCG (Barnyardgrass); set-up: key to ECHCG rating / Herbicidal effect rating, ECHCG / ECHCG: 0-9 visual rating scale vs untreated control
Procedure: (§4) In the tests, seedling plants are grown in jiffy flats for about two weeks. The test compounds are dispersed in 50/50 acetone/water mixtures containing 0.5% TWEEN®20, a polyoxyethylene sorbitan monolaurate surfactant of Atlas Chemical Industries, in sufficient quantities to provide the equivalent of about 0.125 kg to 0.500 kg per hectare of active compound when applied to the plants through a spray nozzle operating at 40 psi for a predetermined time. After spraying, the plants are placed on greenhouse benches and are cared for in the usual manner, commensurate with conventional greenhouse practices. From four to five weeks after treatment, the seedling plants are examined and rated according to the rating system set forth below. Where more than one test is involved for a given compound, the data are averaged.
as §2, §3

[5] = tested on: SETARIA VIRIDIS, (L) BEAU; test: Postemergence herbicidal evaluation, SETVI (Foxtail, Green); set-up: key to SETVI rating / Herbicidal effect rating, SETVI / SETVI: 0-9 visual rating scale vs untreated control
Procedure: as §4, §2, §3

[6] = tested on: GLYCINE MAX(L) MERR. CV. WILLIAMS; test: Postemergence herbicidal evaluation, GLXMAW (Soybean, Williams); set-up: key to GLXMAW rating / Herbicidal effect rating, GLXMAW / GLXMAW: 0-9 visual rating scale vs untreated control
Procedure: as §4, §2, §3

ZEA MAYS L. = test: Postemergence herbicidal evaluation, ZEAMX (Corn, Field)
Procedure: as §1, §2, §3

CHENOPODIUM ALBUM, L. [7] = test: Preemergence herbicidal evaluation, CHEAL (Lambsquarters, Common); details: for CHEAL herbicidal rating: rated four to five weeks after treatment
Excerpt: as §3
The preemergence herbicidal activity of the test compounds of the present invention is exemplified by the following tests in which the seeds of a variety of monocotyledonous and dicotyledonous plants are separately mixed with potting soil and planted on top of approximately one inch of soil in separate pint cups. […] The treated cups are then placed on greenhouse benches, watered and cared for in accordance with conventional greenhouse procedures. From four to five weeks after treatment, the tests are terminated and each cup is examined and rated according to the rating system provided in Example 40.
The compounds evaluated are reported by compound number given in Example 40.

CASSIA OBTUSIFOLIA, L. = test: Postemergence herbicidal evaluation, CASOB (Sicklepod); details: rated four to five weeks after treatment, averaged
Procedure: as §4, §2, §3

[…], PRESL. = Preemergence weed control under flooded paddy conditions, MOOVA (Monochoria); details: preemergence, 3-4 weeks after treatment
Procedure: as §3
Preemergence herbicidal activity under flooded paddy conditions is determined as follows: plant seeds or propagating organs are planted in the top 0.5 cm of silt loam soil in 32 oz. plastic containers with a diameter of 10.5 cm and no drainage holes. Water is added to these containers and maintained at 1.5 to 3 cm above the soil surface for the duration of the experiment. The test compounds are applied as aqueous/acetone mixtures 50/50 v/v pipetted directly into the flood water to give the equivalent of about 0.5, 0.25, 0.125 and 0.063 kg/ha of active ingredient. The treated containers are placed on greenhouse benches and cared for according to normal greenhouse procedures.- Three to four weeks after treatment the test is terminated and each container is examined and herbicidal effect rated according to the rating system provided in Example 40. The compounds evaluated are reported by compound number given in Example 40.
(§5) Plant species employed in this example are reported by header abbreviation, common name and scientific name.

[8] = tested on: ORYZA SATIVA, L. TEBONNET; test: Rice tolerance to post-transplant applications under flooded paddy conditions, ORYSAT (Rice, Tebonnet); details: post-transplant rice, 3-4 weeks after treatment
Procedure: as §3
The tolerance of transplanted rice to post-transplanted herbicide applications is determined as follows: two ten-day-old rice seedlings (CV. Tebonnet) are transplanted into a silt loam soil in 32 oz. plastic containers with a diameter of 10.5 cm and no drainage holes. After transplanting the containers are flooded and the water level is maintained at 1.5 to 3 cm above the soil surface. […] The treated containers are placed on greenhouse benches, watered such that the water level is maintained as stated above, and cared for according to normal greenhouse procedures. Three to four weeks after treatment the test is terminated and each container is examined and herbicidal effect rated according to the rating system provided in Example 40. The compounds evaluated are reported by compound number given in Example 40.
as §5

Cn1c(=O)[nH]c(=O)n(-c2cc(Oc3c(F)cc(C(F)(F)F)cc3Cl)ccc2Br)c1=O [A, reference compound]
Herbicidal effect rating, ABUTH ([1]; 0.063 kg/ha): 5.0
Herbicidal effect rating, ABUTH ([1]; 0.125 kg/ha): 6.0
Herbicidal effect rating, ABUTH ([1]; 0.250 kg/ha): 6.0
Herbicidal effect rating, ABUTH ([1]; 0.500 kg/ha): 9.0
Herbicidal effect rating, AMBEL ([2]; 0.063 kg/ha): 1.0
Herbicidal effect rating, AMBEL ([2]; 0.125 kg/ha): 2.0
Herbicidal effect rating, AMBEL ([2]; 0.500 kg/ha): 5.0
Herbicidal effect rating, CHEAL (CHENOPODIUM ALBUM, L. [3]; 0.063 kg/ha): 9.0
Herbicidal effect rating, CHEAL (CHENOPODIUM ALBUM, L. [3]; 0.125 kg/ha): 9.0
Herbicidal effect rating, CHEAL (CHENOPODIUM ALBUM, L. [3]; 0.250 kg/ha): 9.0
Herbicidal effect rating, CHEAL (CHENOPODIUM ALBUM, L. [3]; 0.500 kg/ha): 9.0
Herbicidal effect rating, IPOSS (IPOMOEA SPP.; 0.063 kg/ha): 6.0
Herbicidal effect rating, IPOSS (IPOMOEA SPP.; 0.125 kg/ha): 7.0
Herbicidal effect rating, IPOSS (IPOMOEA SPP.; 0.250 kg/ha): 9.0
Herbicidal effect rating, IPOSS (IPOMOEA SPP.; 0.500 kg/ha): 9.0
Herbicidal effect rating, ECHCG ([4]; 0.063 kg/ha): 0.0
Herbicidal effect rating, ECHCG ([4]; 0.125 kg/ha): 0.0
Herbicidal effect rating, ECHCG ([4]; 0.250 kg/ha): 2.0
Herbicidal effect rating, ECHCG ([4]; 0.500 kg/ha): 2.0
Herbicidal effect rating, SETVI ([5]; 0.063 kg/ha): 0.0
Herbicidal effect rating, SETVI ([5]; 0.125 kg/ha): 2.0
Herbicidal effect rating, SETVI ([5]; 0.250 kg/ha): 2.0
Herbicidal effect rating, SETVI ([5]; 0.500 kg/ha): 5.0
Herbicidal effect rating, GLXMAW ([6]; 0.063 kg/ha): 2.0
Herbicidal effect rating, GLXMAW ([6]; 0.125 kg/ha): 3.0
Herbicidal effect rating, GLXMAW ([6]; 0.250 kg/ha): 3.0
Herbicidal effect rating, GLXMAW ([6]; 0.500 kg/ha): 5.0
Herbicidal effect rating, ZEAMX (ZEA MAYS L.; 0.063 kg/ha): 0.0
Herbicidal effect rating, ZEAMX (ZEA MAYS L.; 0.125 kg/ha): 0.0
Herbicidal effect rating, ZEAMX (ZEA MAYS L.; 0.250 kg/ha): 0.0
Herbicidal effect rating, ZEAMX (ZEA MAYS L.; 0.500 kg/ha): 2.0
CHEAL (CHENOPODIUM ALBUM, L. [7]; Rate 0.063 kg/ha): 9.0
CHEAL (CHENOPODIUM ALBUM, L. [7]; Rate 0.125 kg/ha): 9.0
CHEAL (CHENOPODIUM ALBUM, L. [7]; Rate 0.250 kg/ha): 9.0
CHEAL (CHENOPODIUM ALBUM, L. [7]; Rate 0.500 kg/ha): 9.0

Cn1c(=O)n(CC(=O)O)c(=O)n(-c2cc(Oc3c(F)cc(C(F)(F)F)cc3Cl)ccc2[N+](=O)[O-])c1=O [Compound 15, 3-{5-[(2-Chloro-α,α,α,6-tetrafluoro-p-tolyl)oxy]-2-nitrophenyl}tetrahydro-5-methyl-2,4,6-trioxo-s-triazine-1(2H)-acetic acid]
ABUTH, herbicide rating (0-9) ([1]; Rate 0.125 kg/ha): 9.0
ABUTH, herbicide rating (0-9) ([1]; Rate 0.250 kg/ha): 9.0
ABUTH, herbicide rating (0-9) ([1]; Rate 0.500 kg/ha): 9.0
AMBEL, herbicide rating (0-9) ([2]; Rate 0.125 kg/ha): 9.0
AMBEL, herbicide rating (0-9) ([2]; Rate 0.250 kg/ha): 9.0
AMBEL, herbicide rating (0-9) ([2]; Rate 0.500 kg/ha): 9.0
CASOB, herbicide rating (0-9) (CASSIA OBTUSIFOLIA, L.; Rate 0.125 kg/ha): 9.0
CASOB, herbicide rating (0-9) (CASSIA OBTUSIFOLIA, L.; Rate 0.250 kg/ha): 9.0
CASOB, herbicide rating (0-9) (CASSIA OBTUSIFOLIA, L.; Rate 0.500 kg/ha): 9.0
CHEAL herbicidal rating (CHENOPODIUM ALBUM, L. [7]; Rate 0.125 kg/ha): 9.0
CHEAL herbicidal rating (CHENOPODIUM ALBUM, L. [7]; Rate 0.250 kg/ha): 9.0
CHEAL herbicidal rating (CHENOPODIUM ALBUM, L. [7]; Rate 0.500 kg/ha): 9.0
Herbicidal effect rating, MOOVA ([…], PRESL.; 0.063 kg/ha): 9.0
Herbicidal effect rating, MOOVA ([…], PRESL.; 0.125 kg/ha): 9.0
Herbicidal effect rating, MOOVA ([…], PRESL.; 0.250 kg/ha): 9.0
Herbicidal effect rating, MOOVA ([…], PRESL.; 0.500 kg/ha): 9.0
Herbicidal effect rating, ORYSAT ([8]; 0.063 kg/ha): 4.5
Herbicidal effect rating, ORYSAT ([8]; 0.125 kg/ha): 4.5
Herbicidal effect rating, ORYSAT ([8]; 0.250 kg/ha): 7.0
Herbicidal effect rating, ORYSAT ([8]; 0.500 kg/ha): 7.0
